The record followed here is ChEMBL document CHEMBL4196157, “Inhibition of Herpes Simplex Virus-1 Entry into Human Cells by Nonsaccharide Glycosaminoglycan Mimetics” (ACS Med Chem Lett, 2018).

The structures appear in SMILES notation. Calls of active or inactive are those of the source. The rule behind the calls is not given here.

Experiment [1] is described as follows: (§1) Binding affinity to recombinant HSV1 glycoprotein D (21 to 339 residues) assessed as change in intrinsic tryptophan fluorescence by spectrofluorimetric method. Also on record: species or system Human alphaherpesvirus 1.
The subject of experiment [2] is Human alphaherpesvirus 1. The description is as §1.
Experiment [3] can be described thus: Binding affinity to HSV1 glycoprotein D. Details: species or system Human alphaherpesvirus 1.
The test system of experiment [4] is Human alphaherpesvirus 1. Put plainly: Antiviral activity against Herpes simplex virus 1 KOS infected in African green monkey Vero cells assessed as inhibition of plaque formation at 5 ug treated 1 hr prior to viral infection followed by compound washout and subsequent compound addition measured after 72 hrs by Giemsa staining based assay. It is filed as functional, organism-based.

What is called Kd is the equilibrium constant for the complex coming apart. With `CCOC(=O)c1c(C)oc2cc(OCc3ccccc3)c(OCCCOc3cc(OS(=O)(=O)O)cc4oc(-c5ccc(OS(=O)(=O)O)cc5)cc(=O)c34)cc12`, in experiment [1], the Kd is 780 nM. In the experiment with Human alphaherpesvirus 1 [2], the %max was -157%.

In experiment [3], `O=C(O)C1=C[C@H](O)[C@@H](OS(=O)(=O)O)[C@H](O[C@H]2[C@H](O)[C@@H](NS(=O)(=O)O)[C@@H](O[C@H]3[C@H](O)[C@@H](OS(=O)(=O)O)[C@H](O[C@H]4[C@H](O)[C@@H](NS(=O)(=O)O)[C@@H](O[C@H]5[C@H](O)[C@@H](OS(=O)(=O)O)[C@H](O[C@H]6[C@H](OS(=O)(=O)O)[C@@H](NS(=O)(=O)O)[C@@H](O[C@H]7[C@H](O)[C@@H](OS(=O)(=O)O)[C@H](O[C@H]8[C@H](O)[C@@H](NS(=O)(=O)O)[C@@H](O)O[C@@H]8COS(=O)(=O)O)O[C@H]7C(=O)O)O[C@@H]6COS(=O)(=O)O)O[C@H]5C(=O)O)O[C@@H]4COS(=O)(=O)O)O[C@H]3C(=O)O)O[C@@H]2COS(=O)(=O)O)O1` yielded a Kd of 18000 nM.

Consider `CO[C@H]1O[C@H](COS(=O)(=O)O)[C@@H](O[C@@H]2O[C@@H](C(=O)O)[C@@H](O[C@H]3O[C@H](COS(=O)(=O)O)[C@@H](O[C@@H]4O[C@H](C(=O)O)[C@@H](O[C@H]5O[C@H](COS(=O)(=O)O)[C@@H](O)[C@H](O)[C@H]5NS(=O)(=O)O)[C@H](O)[C@H]4O)[C@H](OS(=O)(=O)O)[C@H]3NS(=O)(=O)O)[C@H](O)[C@H]2OS(=O)(=O)O)[C@H](O)[C@H]1NS(=O)(=O)O` [FONDAPARINUX SODIUM], for which, in experiment [1], the Kd stood at 500 nM. For the same compound, the %max with Human alphaherpesvirus 1 [2] was -85%.

With `Nc1nc2c(ncn2COCCO)c(=O)[nH]1`, the inhibition entry with Human alphaherpesvirus 1 [4] was “Active”.

`O=S(=O)(O)OC[C@H]1O[C@@](COS(=O)(=O)O)(O[C@@H]2O[C@H](COS(=O)(=O)O)[C@@H](OS(=O)(=O)O)[C@H](OS(=O)(=O)O)[C@H]2OS(=O)(=O)O)[C@@H](OS(=O)(=O)O)[C@@H]1OS(=O)(=O)O`: the Kd in experiment [1] stood at 150 nM. Besides, the %max with Human alphaherpesvirus 1 [2] is -52%.

Regarding `CCOC(=O)c1c(C)oc2cc(OCc3cccc(OS(=O)(=O)O)c3)c(OCc3oc4cc(OC)c(OS(=O)(=O)O)cc4c3C(=O)OCC)cc12`, the Kd in experiment [1] is 2220 nM. For the same compound, the %max in the experiment on Human alphaherpesvirus 1 [2] is -112%.

As to `O=C(OC1[C@@H](OC(=O)c2cc(OS(=O)(=O)O)cc(OS(=O)(=O)O)c2)[C@@H](OC(=O)c2ccc(OS(=O)(=O)O)cc2OS(=O)(=O)O)C(OC(=O)c2cc(OS(=O)(=O)O)cc(OS(=O)(=O)O)c2)[C@H](OC(=O)c2cc(OS(=O)(=O)O)cc(OS(=O)(=O)O)c2)[C@H]1OC(=O)c1cc(OS(=O)(=O)O)cc(OS(=O)(=O)O)c1)c1cc(OS(=O)(=O)O)cc(OS(=O)(=O)O)c1` (single isomer, unassigned), the equilibrium dissociation constant (Kd) in experiment [1] was found to be 112 nM. For the same compound, the %max with Human alphaherpesvirus 1 [2] was 328%.

As for `CC1OC[C@H]2O[C@H](OC(=O)c3cc(OS(=O)(=O)O)cc(OS(=O)(=O)O)c3)[C@H](OC(=O)c3cc(OS(=O)(=O)O)cc(OS(=O)(=O)O)c3)[C@@H](OC(=O)c3cc(OS(=O)(=O)O)cc(OS(=O)(=O)O)c3)[C@@H]2O1` (stereo partly drawn), in experiment [1], the Kd is 26 nM. Also, the %max in the experiment on Human alphaherpesvirus 1 [2] is 87%.

Regarding `Cc1cc(Oc2cc3c(=O)c(OS(=O)(=O)O)c(-c4ccc(OS(=O)(=O)O)c(OS(=O)(=O)O)c4)oc3cc2OS(=O)(=O)O)c(C)cc1COc1cc(OS(=O)(=O)O)cc2oc(-c3ccc(OS(=O)(=O)O)c(OS(=O)(=O)O)c3)c(OS(=O)(=O)O)c(=O)c12`, the Kd in experiment [1] turned out to be 22 nM. For the same compound, the %max in the experiment on Human alphaherpesvirus 1 [2] was -82%.

For `O=C(O[C@@H]1[C@@H](OC(=O)c2cc(OS(=O)(=O)O)cc(OS(=O)(=O)O)c2)[C@H](OC(=O)c2cc(OS(=O)(=O)O)cc(OS(=O)(=O)O)c2)[C@@H](OC(=O)c2ccc(OS(=O)(=O)O)cc2OS(=O)(=O)O)[C@H](OC(=O)c2cc(OS(=O)(=O)O)cc(OS(=O)(=O)O)c2)[C@H]1OC(=O)c1cc(OS(=O)(=O)O)cc(OS(=O)(=O)O)c1)c1cc(OS(=O)(=O)O)cc(OS(=O)(=O)O)c1`, the Kd in experiment [1] is 8 nM. In the experiment on Human alphaherpesvirus 1 [2], the %max was 53%.
